Marks after values point to notes of the source that are not given here. Non-standard residues stand in square brackets, D forms with d. Residues, ends and D or L forms follow the SMILES beside them. *: point of attachment. DOTA = O=C(O)CN1CCN(CC(=O)O)CCN(CC(=O)*)CCN(CC(=O)O)CC1; Nle = CCCC[C@H](N)C(=O)O
Columns and labels:
B16-F1 cells = assay: In situ melanin assay in B16-F1 cells; format: cell-based, mouse; settings: for Reduction of biological activity compared to DOTA-NAP-amide: melanin assay
Procedure: The biological activity of the α-MSH derivatives was assessed with an in situ melanin assay ([40]). Briefly, B16-F1 cells (2,500 cells per well in 100 µL) were distributed into 96-well flat-bottom cell culture plates. MEM without phenol red, supplemented with 10% heat-inactivated fetal calf serum, 2 mM L-glutamine, 0.31 mmol/L L-tyrosine, 1% non-essential amino acids, 1% vitamin solution, 50 IU/mL penicillin, and 50 µg/mL streptomycin, was used as culture medium. After overnight incubation at cell culture conditions mentioned above, concentrations of α-MSH derivatives ranging from 1 × 10^−8 to 1 × 10^−12 in 100-µL volumes were added (in threefold dilution steps), and the incubation was continued for an additional 72 h. Melanin production was quantified by determining the absorbance at 310 nm in a microplate reader.

[1] = in vivo; cited from earlier work

For `CCCC[C@H](NC(C)=O)C(=O)N[C@@H](CC(=O)O)C(=O)N[C@@H](Cc1c[nH]cn1)C(=O)N[C@H](Cc1ccccc1)C(=O)N[C@@H](CCCNC(=N)N)C(=O)N[C@@H](Cc1c[nH]c2ccccc12)C(=O)NCC(=O)N[C@@H](CCCCNC(=O)CN1CCN(CC(=O)O)CCN(CC(=O)O)CCN(CC(=O)O)CC1)C(=O)N[C@H](CC(=O)O)C(=O)N[C@H](CC(=O)O)C(=O)O` [DOTA-NAP-D-Asp-D-Asp, Ac-Nle-Asp-His-D-Phe-Arg-Trp-Gly-Lys(DOTA)-D-Asp-D-Asp-OH] (Ac-[Nle]DH[dF]RWGK(DOTA)[dD][dD]-OH), the “Reduction of biological activity compared to DOTA-NAP-amide” value (B16-F1 cells) was greater than 10 fold, the “Reduction of biological activity compared to DOTA-NAP-amide” value (B16-F1 cells; listed as DOTA-NAP by D-Asp-D-Asp) was “around 11 fold” and the “Biological activity rEC50 [α-MSH = 1]” value (B16-F1 cells; relative concentration vs. α-MSH (=1) inducing half-maximal melanin production by B16-F1 cells, 72 h, absorbance 310 nm, n = 3–13, ^c = P < 0.05 vs. DOTA-NAP-amide) was 7.66 ± 0.33^c.
For `CCCC[C@H](NC(C)=O)C(=O)N[C@@H](CC(=O)O)C(=O)N[C@@H](Cc1c[nH]cn1)C(=O)N[C@H](Cc1ccccc1)C(=O)N[C@@H](CCCNC(=N)N)C(=O)N[C@@H](Cc1c[nH]c2ccccc12)C(=O)NCC(=O)N[C@@H](CCCCNC(=O)CN1CCN(CC(=O)O)CCN(CC(=O)O)CCN(CC(=O)O)CC1)C(N)=O` [DOTA-NAP-amide, [Ac-Nle^4,Asp^5,D-Phe^7,Lys^11(DOTA)]-α-MSH4-11, reference compound], the “Tumor and non-tumor tissue uptake (in words)” value [1] is given as “highest tumor uptake paired with minimal non-tumor tissue uptake, except for the kidneys”.
